Data as given in patent US20100056596A1, “RESISTANCE-REPELLENT RETROVIRAL PROTEASE INHIBITORS” (Sequoia Pharmaceuticals, priority 2004, published 2010).
Like-named read-outs stand apart in the source and are kept apart here.

Assays:
HIV-1 isolates, Mutant 9 = assay: In vitro drug sensitivity of HIV-1 laboratory isolates, Mutant 9; type: cell-based
Protocol: (§1) In Vitro Drug Sensitivity of HIV-1 Laboratory Isolates to PIs
(§2) The sensitivities of HIV-1 isolates against compounds of the invention were determined as previously described with minor modifications (Shiraska et al., Proc. Natl. Acad. Sci. USA, 92, 2398-2402 (1995)).

HIV-1 isolates, Mutant 8 = assay: In vitro drug sensitivity of HIV-1 laboratory isolates, Mutant 8; type: cell-based
Protocol: as §1, §2

HIV-1 isolates, WT = assay: In vitro drug sensitivity of HIV-1 laboratory isolates, WT; type: cell-based
Protocol: as §1, §2

HIV-1 protease Mutant 8 = HIV-1 protease Mutant 8 (Human immunodeficiency virus type 1, UniProt P04585); assay: Ki against HIV-1 protease Mutant 8; type: biochemical
HIV-1 protease Mutant 9 = HIV-1 protease Mutant 9 (Human immunodeficiency virus type 1, UniProt P04585); assay: Ki against HIV-1 protease Mutant 9; type: biochemical
wild type HIV-1 protease = target: T1, wild type HIV-1 protease (Human immunodeficiency virus type 1 group M subtype B, UniProt P04585); assay: Ki against wild type (WT) HIV-1 protease; type: biochemical
T1 construct: over 45 of the 99 amino acids of the HIV protease monomer

[1] = Human immunodeficiency virus 1, read-out: IC50 Mutant 9
[2] = Human immunodeficiency virus 1, read-out: IC50 Mutant 8
[3] = Human immunodeficiency virus 1, HIV-1 isolate WT
[4] = Mutant 9, read-out: IC50 Mutant 9
[5] = Mutant 8, read-out: IC50 Mutant 8

Structure (SMILES) | IC50 (HIV-1 isolates, Mutant 9; [1]) | IC50 (HIV-1 isolates, Mutant 8; [2]) | IC50 (HIV-1 isolates, WT; [3]) | Ki (HIV-1 protease Mutant 8; HIV-1 protease Mutant 8) | Ki (HIV-1 protease Mutant 9; HIV-1 protease Mutant 9) | Ki (wild type HIV-1 protease; wild type HIV-1 protease) | IC50 (HIV-1 isolates, WT; Human immunodeficiency virus 1) | Ki (HIV-1 protease Mutant 8; Mutant 8) | Ki (HIV-1 protease Mutant 9; Mutant 9) | Ki (wild type HIV-1 protease; WT) | IC50 (HIV-1 isolates, Mutant 9; [4]) | IC50 (HIV-1 isolates, Mutant 8; [5]) | IC50 (HIV-1 isolates, WT; WT)
CCS(=O)(=O)NCc1noc2ccc(S(=O)(=O)N(CC(C)C)CC(O)C(Cc3ccccc3)NC(=O)OC3COC4OCCC34)cc12 (stereo not drawn) [Compound 223] | 60 nM | 11 nM | 9 nM | < 0.3 nM | 0.26 nM | < 0.1 nM |  |  |  |  |  |  | 
COCc1coc2ccc(S(=O)(=O)N(CC(C)C)CC(O)C(Cc3ccccc3)NC(=O)OC3COC4OCCC34)cc12 (stereo not drawn) [Compound 123] | 240 nM | 19 nM |  |  |  |  | 4 nM | < 0.3 nM | 0.22 nM | 0.13 nM |  |  | 
CC(C)CN(CC(O)C(Cc1ccccc1)NC(=O)OC1COC2OCCC12)S(=O)(=O)c1ccc2onc(CNC(=O)C(F)(F)C(F)(F)F)c2c1 (stereo not drawn) [Compound 245] | 190 nM | 30 nM | 8.4 nM | < 0.3 nM | 0.63 nM | < 0.1 nM |  |  |  |  |  |  | 
CC(C)CN(CC(O)C(Cc1ccccc1)NC(=O)OC1COC2OCCC12)S(=O)(=O)c1ccc2onc(CNCCOc3ccccc3)c2c1 (stereo not drawn) [Compound 230] | 57 nM | 20 nM | 4.8 nM | < 0.3 nM | 0.14 nM | < 0.1 nM |  |  |  |  |  |  | 
CC(C)CN(CC(O)C(Cc1ccccc1)NC(=O)OC1COC2OCCC12)S(=O)(=O)c1ccc2occ(CNC(=O)C[S+]([O-])Cc3ccccc3)c2c1 (stereo not drawn) [Compound 120] | 150 nM | 31 nM |  |  |  |  | 20 nM | < 0.3 nM | 0.22 nM | < 0.1 nM |  |  | 
CC(C)CN(CC(O)C(Cc1ccccc1)NC(=O)OC1COC2OCCC12)S(=O)(=O)c1ccc2onc(Cn3ccnc3)c2c1 (stereo not drawn) [Compound 216] | 250 nM | 32 nM | 20 nM | < 0.3 nM | 1.7 nM | < 0.1 nM |  |  |  |  |  |  | 
Cc1coc2ccc(S(=O)(=O)N(CC(C)C)CC(O)C(Cc3ccccc3)NC(=O)OC3COC4OCCC34)cc12 (stereo not drawn) [Compound 103] | 300 nM | 35 nM |  |  |  |  | 3.7 nM | < 0.3 nM | 0.48 nM | < 0.1 nM |  |  | 
CC(=O)OCc1noc2ccc(S(=O)(=O)N(CC(C)C)CC(O)C(Cc3ccccc3)NC(=O)OC3COC4OCCC34)cc12 (stereo not drawn) [Compound 205] | 68 nM | 23 nM | 10 nM | < 0.3 nM | 0.23 nM | < 0.1 nM |  |  |  |  |  |  | 
CC(C)CN(CC(O)C(Cc1ccccc1)NC(=O)OC1COC2OCCC12)S(=O)(=O)c1ccc2onc(COC(=O)C(C)C)c2c1 (stereo not drawn) [Compound 215] | 55 nM | 15 nM | 11 nM | < 0.3 nM | 0.75 nM | < 0.1 nM |  |  |  |  |  |  | 
CC(C)CN(CC(O)C(Cc1ccccc1)NC(=O)OC1COC2OCCC12)S(=O)(=O)c1ccc2onc(CNC(=O)C(C)C)c2c1 (stereo not drawn) [Compound 220] | 60 nM | 12 nM | 7 nM | < 0.3 nM | 0.14 nM | < 0.1 nM |  |  |  |  |  |  | 
CC(C)CN(CC(O)C(Cc1ccccc1)NC(=O)OC1COC2OCCC12)S(=O)(=O)c1ccc2onc(CNCCCN3CCCC3=O)c2c1 (stereo not drawn) [Compound 237] | 85 nM | 41 nM | 31 nM | < 0.3 nM | 0.27 nM | < 0.1 nM |  |  |  |  |  |  | 
CCC(CC)Nc1n[nH]c2ccc(S(=O)(=O)N(CC(C)C)CC(O)C(Cc3ccccc3)NC(=O)OC3COC4OCCC34)cc12 (stereo not drawn) [Compound 307] | 110 nM | 24 nM |  |  |  |  | 7.5 nM | < 0.3 nM | 0.55 nM | < 0.1 nM |  |  | 
CC(C)CN(CC(O)C(Cc1ccccc1)NC(=O)OC1COC2OCCC12)S(=O)(=O)c1ccc2onc(CNCc3ccccn3)c2c1 (stereo not drawn) [Compound 241] | 27 nM | 17 nM | 8 nM | < 0.3 nM | 0.16 nM | 0.1 nM |  |  |  |  |  |  | 
CCCC(C)Nc1n[nH]c2ccc(S(=O)(=O)N(CC(C)C)CC(O)C(Cc3ccccc3)NC(=O)OC3COC4OCCC34)cc12 (stereo not drawn) [Compound 303] | 150 nM | 18 nM |  |  |  |  | 10 nM | < 0.3 nM | 0.73 nM | < 0.1 nM |  |  | 
CC(C)CN(CC(O)C(Cc1ccccc1)NC(=O)OC1COC2OCCC12)S(=O)(=O)c1ccc2onc(CNC(=O)C(F)(F)F)c2c1 (stereo not drawn) [Compound 234] | 85 nM | 23 nM | 16 nM | < 0.3 nM | 0.36 nM | < 0.1 nM |  |  |  |  |  |  | 
CCS(=O)(=O)N(CCOC)Cc1noc2ccc(S(=O)(=O)N(CC(C)C)CC(O)C(Cc3ccccc3)NC(=O)OC3COC4OCCC34)cc12 (stereo not drawn) [Compound 227] | 80 nM | 27 nM | 3.6 nM | 0.41 nM | 2.6 nM | < 0.1 nM |  |  |  |  |  |  | 

Structure (SMILES) | IC50 (HIV-1 isolates, Mutant 9; [1]) | IC50 (HIV-1 isolates, Mutant 8; [2]) | IC50 (HIV-1 isolates, WT; [3]) | Ki (HIV-1 protease Mutant 8; HIV-1 protease Mutant 8) | Ki (HIV-1 protease Mutant 9; HIV-1 protease Mutant 9) | Ki (wild type HIV-1 protease; wild type HIV-1 protease) | IC50 (HIV-1 isolates, WT; Human immunodeficiency virus 1) | Ki (HIV-1 protease Mutant 8; Mutant 8) | Ki (HIV-1 protease Mutant 9; Mutant 9) | Ki (wild type HIV-1 protease; WT) | IC50 (HIV-1 isolates, Mutant 9; [4]) | IC50 (HIV-1 isolates, Mutant 8; [5]) | IC50 (HIV-1 isolates, WT; WT)
CC(C)CN(CC(O)C(Cc1ccccc1)NC(=O)OC1COC2OCCC12)S(=O)(=O)c1ccc2onc(CNCCNC(=O)OC(C)(C)C)c2c1 (stereo not drawn) [Compound 236] | 160 nM | 18 nM | 6 nM | < 0.3 nM | 0.34 nM | < 0.1 nM |  |  |  |  |  |  | 
CC(C)CN(C[C@@H](O)[C@H](Cc1ccccc1)NC(=O)OC1COC2OCCC12)S(=O)(=O)c1ccc2occ(CNC(=O)CSCc3ccccc3)c2c1 (stereo partly drawn) [Compound 119] |  |  |  |  |  |  |  | < 0.3 nM | 0.95 nM | 0.12 nM | 170 nM | 42 nM | 5 nM
CC(C)CN(CC(O)C(Cc1ccccc1)NC(=O)OC1COC2OCCC12)S(=O)(=O)c1ccc2occ(CNC(=O)c3ccccc3)c2c1 (stereo not drawn) [Compound 114, (3-{[3-(Benzoylamino-methyl)-benzofuran-5-sulfonyl]-isobutyl-amino}-1-benzyl-2-hydroxy-propyl)-carbamic acid hexahydro-furo[2,3-b]furan-3-yl ester] | 30 nM | 23 nM |  |  |  |  | 4 nM | < 0.3 nM | < 0.1 nM | 0.1 nM |  |  | 
CC(C)CN(CC(O)C(Cc1ccccc1)NC(=O)OC1COC2OCCC12)S(=O)(=O)c1ccc2onc(CN3CCOCC3)c2c1 (stereo not drawn) [Compound 239] | > 400 nM | 25 nM | 3 nM | < 0.3 nM | 3.7 nM | < 0.1 nM |  |  |  |  |  |  | 
CC(C)CN(CC(O)C(Cc1ccccc1)NC(=O)OC1COC2OCCC12)S(=O)(=O)c1ccc2onc(CN(C)S(C)(=O)=O)c2c1 (stereo not drawn) [Compound 210] | 300 nM | 51 nM | 3 nM | < 0.3 nM | 1.3 nM | < 0.1 nM |  |  |  |  |  |  | 
CC(C)CN(CC(O)C(Cc1ccccc1)NC(=O)OC1COC2OCCC12)S(=O)(=O)c1ccc2onc(CNCC3CCCCC3)c2c1 (stereo not drawn) [Compound 238] | 55 nM | 35 nM | 7.5 nM | < 0.3 nM | < 0.1 nM | < 0.1 nM |  |  |  |  |  |  | 
CC(C)CN(C[C@@H](O)[C@H](Cc1ccccc1)NC(=O)OC1COC2OCCC12)S(=O)(=O)c1ccc2occ(CNC(=O)c3ccco3)c2c1 (stereo partly drawn) [Compound 125] |  |  |  |  |  |  |  | < 0.3 nM | < 0.1 nM | < 0.1 nM | 31 nM | 9 nM | 5 nM
CC(C)CN(C[C@@H](O)[C@H](Cc1ccccc1)NC(=O)OC1COC2OCCC12)S(=O)(=O)c1ccc2occ(CNCC(=O)OC(C)(C)C)c2c1 (stereo partly drawn) [Compound 110] |  |  |  |  |  |  |  | < 0.3 nM | 0.32 nM | < 0.1 nM | 62 nM | 33 nM | 3.4 nM
CCOC(=O)C(C)NCc1noc2ccc(S(=O)(=O)N(CC(C)C)CC(O)C(Cc3ccccc3)NC(=O)OC3COC4OCCC34)cc12 (stereo not drawn) [Compound 206] | 160 nM | 30 nM | 5 nM | < 0.3 nM | 0.33 nM | < 0.1 nM |  |  |  |  |  |  | 
CC(C)CN(C[C@@H](O)[C@H](Cc1ccccc1)NC(=O)OC1COC2OCCC12)S(=O)(=O)c1ccc2occ(CN3CCOCC3)c2c1 (stereo partly drawn) [Compound 108] |  |  |  |  |  |  |  | < 0.3 nM | 1.5 nM | < 0.1 nM | 420 nM | 38 nM | 1.5 nM
CC(C)CN(C[C@@H](O)[C@H](Cc1ccccc1)NC(=O)OC1COC2OCCC12)S(=O)(=O)c1ccc2occ(CNC(=O)CNC(=O)OCc3ccccc3)c2c1 (stereo partly drawn) [Compound 116] |  |  |  |  |  |  |  | < 0.3 nM | 0.41 nM | < 0.1 nM | 58 nM | 50 nM | 15 nM
CC(C)CN(C[C@@H](O)[C@H](Cc1ccccc1)NC(=O)OC1COC2OCCC12)S(=O)(=O)c1ccc2c(c1)C(=O)CCO2 (stereo partly drawn) | 625 nM | 42 nM |  |  |  |  | 3.5 nM | 0.42 nM | 4.9 nM | < 0.1 nM |  |  | 
CC(C)CN(CC(O)C(Cc1ccccc1)NC(=O)OC1COC2OCCC12)S(=O)(=O)c1ccc2onc(CNC3CCCC3)c2c1 (stereo not drawn) [Compound 235] | 120 nM | 15 nM | 4.2 nM | < 0.3 nM | 0.43 nM | < 0.1 nM |  |  |  |  |  |  | 
CC(C)CN(CC(O)C(Cc1ccccc1)NC(=O)OC1COC2OCCC12)S(=O)(=O)c1ccc2onc(CNC(=O)c3ccccc3)c2c1 (stereo not drawn) [Compound 221] | 16 nM | 14 nM | 7 nM | < 0.3 nM | < 0.1 nM | < 0.1 nM |  |  |  |  |  |  | 
CC(C)CN(CC(O)C(Cc1ccccc1)NC(=O)OC1COC2OCCC12)S(=O)(=O)c1ccc2onc(CNC(=O)OC(C)C)c2c1 (stereo not drawn) [Compound 212] | > 400 nM | 30 nM | 5 nM | < 0.3 nM | 0.34 nM | < 0.1 nM |  |  |  |  |  |  | 
